Source: patent EP0023569A1, “Derivatives of carboxylic acids, their preparation and medicaments containing them” (Dr. Karl Thomae GmbH, priority 1979, dated 1981)

Tested on: weiblichen und männlichen Mäusen
Experiment: Acute toxicity in mice after a single oral dose
Format: in vivo
Settings: observation at least 7 days; for orientierende Toxizität: single dose p.o., suspension in 1% methylcellulose
Excerpt: Bei weiblichen und männlichen Mäusen eigener Zucht mit dem Gewicht von 20-26 g wurde die toxische Wirkung der Substanzen nach oraler Gabe (Suspension in 1%iger Methylcellulose) einer einmaligen Dosis bei einer Nachbeobachtungszeit von mindestens 7 Tagen geprüft. Die nachfolgende Tabelle enthält die gefundenen Werte: […]

[1] = single dose of 2 000 mg/kg p.o.
[2] = single dose of 1 000 mg/kg p.o.

SMILES | Tieren gestorben [1] | orientierende Toxizität | Tieren gestorben [2]
CN(C)c1ccc(Cl)cc1C(=O)NCCc1ccc(C(=O)O)cc1 [A, 4-[2-(5-Chlor-2-dimethylamino-benzoylamino)-äthyl]benzoe-säure] | 0 von 6 | > 2 000 mg/kg | –
CN(C)c1ccc(Br)cc1C(=O)NCCc1ccc(C(=O)O)cc1 [B, 4-[2-(5-Brom-2-dimethylamino-benzoylamino)-äthyl]benzoesäure] | – | > 1 000 mg/kg | 0 von 5
O=C(O)c1ccc(CCNC(=O)c2cc(Cl)ccc2N2CCCCC2)cc1 [D, 4-[2-(5-Chlor-2-piperidino-benzoylamino)-äthy]benzoesäure] | 0 von 6 | > 2 000 mg/kg | –
COC(=O)c1ccc(CCNC(=O)c2cc(Cl)ccc2N2CC(C)CC(C)C2)cc1 (centres unmarked) [H, 4-[2-(5-Chlor-2-(3,5-dimethyl-piperidino)-benzoylamino)-äthy]benzoesäure-methylester] | – | > 1 000 mg/kg | 0 von 6
O=C(O)c1cc(Cl)ccc1N1CCC2(CC1)OCCO2 [KK, 5-Chlor-2-(1,4-dioxa-8-aza-spiro[4,5]decan-8-yl)-benzoe-säure] | 0 von 10 | > 2 000 mg/kg | –
O=C(O)c1ccc(CCNC(=O)c2cc(Cl)ccc2N2CCCCCC2)cc1 [O, 4-[2-(5-Chlor-2-hexamethylenimino-benzoylamino)-äthyl]-benzoesäure] | – | > 1 000 mg/kg | 0 von 10
CC1CN(c2ccc(Cl)cc2C(=O)NCCc2ccc(C(=O)O)cc2)CC(C)O1 (centres unmarked) [T, 4-[-(5-Chlor-2-(2,6-dimethyl-morpholino)-benzoylamino)-äthyl]benzoesäure] | – | > 1 000 mg/kg | 0 von 10
CCOC(=O)c1ccc(CCNC(=O)c2cc(Br)ccc2N2CCCCCCC2)cc1 [V, 4-[2-(5-Brom-2-heptamethylenimino-benzoylamino)-äthyl]benzoesäure-äthylester] | – | > 1 000 mg/kg | 0 von 10
O=C(O)c1ccc(CCNC(=O)c2cc(Br)ccc2N2CCCCCCC2)cc1 [W, 4-[2-(5-Brom-2-heptamethylenimino-benzoylamino)-äthyl]-benzoesäure] | – | > 1 000 mg/kg | 0 von 6
O=C(O)c1ccc(CCNC(=O)c2cc(Cl)ccc2N2CCCCCCCC2)cc1 [X, 4-[2-(5-Chlor-2-octamethylenimino-benzoylamino)-äthyl]-benzoesäure] | – | > 1 000 mg/kg | 0 von 6
